Measured values taken from publication PMC3131519 (Frontiers in Microbiology, 2011).

Key:
[1] = tested on: P. aeruginosa (ATCC 19429); assay: Galleria mellonella infection by P. aeruginosa, treatment survival; assay type: in vivo; details: 1 × 10^3 CFU P. aeruginosa, single dose 5 μg ciprofloxacin
red blood cells = details: 100 μg/ml peptide; ref de Latour et al., 2010; Dean et al., 2011; cited from earlier work

Row | Molecule | effectiveness at prolonging survival vs infected control, in words [1] | hemolysis (red blood cells)
1 | O=C(O)c1cn(C2CC2)c2cc(N3CCNCC3)c(F)cc2c1=O [ciprofloxacin] | effective | 
2 | ATRA |  | no significant hemolysis
